30 compounds from patent US20230271941A1, “COMPOUNDS AND COMPOSITIONS FOR TREATING CONDITIONS ASSOCIATED WITH STING ACTIVITY” (IFM Due, Inc., priority 2020, published 2023) can be followed below.

This experiment deals with T1, hSTING (Homo sapiens, UniProt Q86WV6, G230A/H232R/R293Q/R71H).
T1 construct: host or cells: THP1-Dual KO-IFNAR2 cells
T1 sequence (Q86WV6 whole entry R71H/G230A/H232R/R293Q): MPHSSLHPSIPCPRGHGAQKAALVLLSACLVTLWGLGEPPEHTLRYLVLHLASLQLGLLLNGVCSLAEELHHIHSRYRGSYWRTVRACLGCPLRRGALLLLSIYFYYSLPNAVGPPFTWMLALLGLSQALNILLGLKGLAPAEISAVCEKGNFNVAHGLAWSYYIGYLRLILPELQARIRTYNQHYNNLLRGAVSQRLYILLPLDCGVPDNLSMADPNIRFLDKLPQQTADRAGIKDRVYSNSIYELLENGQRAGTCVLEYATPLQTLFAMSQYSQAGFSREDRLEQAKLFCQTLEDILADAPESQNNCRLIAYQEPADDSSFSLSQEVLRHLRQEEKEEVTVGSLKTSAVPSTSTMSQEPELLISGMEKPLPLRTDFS
The experiment can be described thus: STING reporter assay: THP1-Dual KO-IFNAR2 cells stimulated with 2′3′cGAMP, luciferase reporter activity. Format: cell-based. As to conditions: 15 μM 2′3′cGAMP transfected with Lipofectamine 2000, 24 h, luciferase reporter (QUANTI-Luc). Here is the method:
STING pathway activation by the compounds described herein was measured using THP1-Dual™ cells (KO-IFNAR2).
THP1-Dual™ KO-IFNAR2 Cells (obtained from invivogen) were maintained in RPMI, 10% FCS, 5 ml P/S, 2 mM L-glut, 10 mM Hepes, and 1 mM sodium pyruvate. Compounds were spotted in empty 384 well tissue culture plates (Greiner 781182) by Echo for a final concentration of 0.0017-100 μM. Cells were plated into the TC plates at 40 μL per well, 2×10E6 cells/mL. For activation with STING ligand, 2′3′cGAMP (MW 718.38, obtained from Invivogen), was prepared in Optimem media.
The following solutions were prepared for each 1×384 plate: • Solution A: 2 mL Optimem with one of the following stimuli: • 60 μL of 10 mM 2′3′cGAMP→150 μM stock • Solution B: 2 mL Optimem with 60 μL Lipofectamine 2000→Incubate 5 min at RT
2 mL of solution A and 2 ml Solution B was mixed and incubated for 20 min at room temperature (RT). 20 μL of transfection solution (A+B) was added on top of the plated cells, with a final 2′3′cGAMP concentration of 15 μM. The plates were then centrifuged immediately at 340 g for 1 minute, after which they were incubated at 37° C., 5% CO2, >98% humidity for 24 h. Luciferase reporter activity was then measured. EC50 values were calculated by using standard methods known in the art.
Luciferase reporter assay: 10 μL of supernatant from the assay was transferred to white 384-plate with flat bottom and squared wells. One pouch of QUANTI-Luc™ Plus was dissolved in 25 mL of water. 100 μL of QLC Stabilizer per 25 mL of QUANTI-Luc™Plus solution was added. 50 μL of QUANTI-Luc™ Plus/QLC solution per well was then added. Luminescence was measured on a Platereader (e.g., Spectramax I3X (Molecular Devices GF3637001)).
Luciferase reporter activity was then measured. EC50 values were calculated by using standard methods known in the art.
Regarding `O=C(Nc1c[nH]c2ccccc12)c1ncc(-c2ccc(C(F)(F)F)cc2)[nH]1` [Compound 129, N-(1H-indol-3-yl)-5-(4-(trifluoromethyl)phenyl)-1H-imidazole-2-carboxamide], the EC50 was 0.2 to 1 µM.

Compound `O=C(Nc1c[nH]c2ccccc12)c1cn(Cc2ccc(C(F)(F)F)cn2)cn1` [Compound 130, N-(1H-indol-3-yl)-1-((5-(trifluoromethyl)pyridin-2-yl)methyl)-1H-imidazole-4-carboxamide] showed an EC50 of 1 to 5 µM.

For the compound `O=C(Nc1c[nH]c2c(F)cncc12)c1ccn(Cc2ccc(C(F)(F)F)cc2)n1` [Compound 131, N-(7-fluoro-1H-pyrrolo[3,2-c]pyridin-3-yl)-1-(4-(trifluoromethyl)benzyl)-1H-pyrazole-3-carboxamide], the EC50 was in the range of 1 to 5 µM.

For `O=C(Nc1c[nH]c2ccccc12)c1cncn1Cc1ccc(C(F)(F)F)c(Cl)c1` [Compound 132, 1-(3-chloro-4-(trifluoromethyl)benzyl)-N-(1H-indol-3-yl)-1H-imidazole-5-carboxamide], the EC50 was in the range of 1 to 5 µM.

`CC(C)n1cc(-c2ccc3[nH]cc(NC(=O)c4ccn(Cc5ccc(C(F)(F)F)cc5)n4)c3c2)cn1` [Compound 133, N-(5-(1-isopropyl-1H-pyrazol-4-yl)-1H-indol-3-yl)-1-(4-(trifluoromethyl)benzyl)-1H-pyrazole-3-carboxamide]: the EC50 was 0.2 to 1 µM.

`COc1ccc2[nH]cc(NC(=O)c3ccn(Cc4ccc(C(F)(F)F)cc4)n3)c2n1` [Compound 134, N-(5-methoxy-1H-pyrrolo[3,2-b]pyridin-3-yl)-1-(4-(trifluoromethyl)benzyl)-1H-pyrazole-3-carboxamide] came in with an EC50 of 1 to 5 µM.

Take `O=C(Nc1c[nH]c2ccccc12)c1cn(-c2ccc(C(F)(F)F)c(Cl)c2)cn1` [Compound 135, 1-(3-chloro-4-(trifluoromethyl)phenyl)-N-(1H-indol-3-yl)-1H-imidazole-4-carboxamide]: the EC50 is 0.2 to 1 µM.

For the compound `O=C(Nc1c[nH]c2ccccc12)c1cn(Cc2ccc(C(F)(F)F)c(Cl)c2)cn1` [Compound 136, 1-(3-chloro-4-(trifluoromethyl)benzyl)-N-(1H-indol-3-yl)-1H-imidazole-4-carboxamide], the EC50 is 0.2 to 1 µM.

The compound `O=C(Nc1c[nH]c2ccc(-c3ccc(CO)c(F)c3)cc12)c1cn(Cc2ccc(C(F)(F)F)cc2)cn1` [Compound 137, N-(5-(3-fluoro-4-(hydroxymethyl)phenyl)-1H-indol-3-yl)-1-(4-(trifluoromethyl)benzyl)-1H-imidazole-4-carboxamide] showed an EC50 of 1 to 5 µM.

Take `CC(C)n1cc(-c2ccc3[nH]cc(NC(=O)c4cn(Cc5ccc(C(F)(F)F)cc5)cn4)c3c2)cn1` [Compound 138, N-(5-(1-isopropyl-1H-pyrazol-4-yl)-1H-indol-3-yl)-1-(4-(trifluoromethyl)benzyl)-1H-imidazole-4-carboxamide]: the concentration for a half-maximal effect (EC50) lay within 0.2 to 1 µM.

In the case of `CC(C)n1cc(-c2ccc3[nH]cc(NC(=O)c4cn(-c5ccc(C(F)(F)F)cc5)cn4)c3c2)cn1` [Compound 139, N-(5-(1-isopropyl-1H-pyrazol-4-yl)-1H-indol-3-yl)-1-(4-(trifluoromethyl)phenyl)-1H-imidazole-4-carboxamide], the EC50 lay within 0.2 to 1 µM.

The compound `Cc1cc(C(=O)Nc2c[nH]c3cc(F)c(F)cc23)nn1C1CCCCC1` [Compound 140, 1-cyclohexyl-N-(5,6-difluoro-1H-indol-3-yl)-5-methyl-1H-pyrazole-3-carboxamide] yielded an EC50 of 5 to 100 µM.

The compound `O=C(Nc1c[nH]c2cc(F)c(Cl)cc12)c1cnn(Cc2ccc(C(F)(F)F)cc2)c1` [Compound 141, N-(5-chloro-6-fluoro-1H-indol-3-yl)-1-(4-(trifluoromethyl)benzyl)-1H-pyrazole-4-carboxamide] had an EC50 of 0.04 to 0.2 µM.

Take `O=C(Nc1c[nH]c2cc(F)c(F)cc12)c1nn(Cc2ccc(C(F)(F)F)cc2)c(=O)[nH]1` [Compound 142, N-(5,6-difluoro-1H-indol-3-yl)-5-oxo-1-(4-(trifluoromethyl)benzyl)-4,5-dihydro-1H-1,2,4-triazole-3-carboxamide]: the EC50 lay within 1 to 5 µM.

As to `O=C(Nc1c[nH]c2cc(F)ccc12)c1cnn(Cc2ccc(C(F)(F)F)cc2)c1` [Compound 143, N-(6-fluoro-1H-indol-3-yl)-1-(4-(trifluoromethyl)benzyl)-1H-pyrazole-4-carboxamide], the EC50 fell in the range of 0.2 to 1 µM.

Consider `O=C(Nc1c[nH]c2cnccc12)c1cnn(Cc2ccc(C(F)(F)F)cc2)c1` [Compound 144], for which the EC50 lay in the range of 5 to 100 µM.

In turn, `O=C(Nc1c[nH]c2cc(F)c(F)cc12)c1cc(Cc2ccc(C(F)(F)F)cc2)[nH]n1` [Compound 145, N-(5,6-difluoro-1H-indol-3-yl)-5-(4-(trifluoromethyl)benzyl)-1H-pyrazole-3-carboxamide] yielded an EC50 of 0.2 to 1 µM.

Regarding `CC(C)n1cc(-c2cc(F)c3[nH]cc(NC(=O)c4cnn(Cc5ccc(C(F)(F)F)cc5)c4)c3c2)cn1` [Compound 146, N-(7-fluoro-5-(1-isopropyl-1H-pyrazol-4-yl)-1H-indol-3-yl)-1-(4-(trifluoromethyl)benzyl)-1H-pyrazole-4-carboxamide], the EC50 was 0.2 to 1 µM.

Compound `O=C(Nc1c[nH]c2cc(F)c(F)cc12)c1ccn(CCOc2cccnc2)n1` [Compound 147, N-(5,6-difluoro-1H-indol-3-yl)-1-(2-(pyridin-3-yloxy)ethyl)-1H-pyrazole-3-carboxamide] displayed an EC50 of 5 to 100 µM.

The compound `O=C(Nc1c[nH]c2cc(F)c(F)cc12)c1cc(CCc2ccc(C(F)(F)F)cc2)no1` [Compound 150, N-(5,6-difluoro-1H-indol-3-yl)-3-(4-(trifluoromethyl)phenethyl)isoxazole-5-carboxamide] yielded an EC50 of 0.04 to 0.2 µM.

Consider `O=C(Nc1c[nH]c2cc(F)c(F)cc12)c1cc(Cc2ccc(C(F)(F)F)cc2)no1` [Compound 151, N-(5,6-difluoro-1H-indol-3-yl)-3-(4-(trifluoromethyl)benzyl)isoxazole-5-carboxamide], for which the EC50 was in the range of 0.2 to 1 µM.

`O=C(Nc1c[nH]c2cc(F)c(F)cc12)c1cc(CC2CCN(CC(F)(F)F)CC2)on1` [Compound 152, N-(5,6-difluoro-1H-indol-3-yl)-5-((1-(2,2,2-trifluoroethyl)piperidin-4-yl)methyl)isoxazole-3-carboxamide] showed an EC50 of 0.2 to 1 µM.

The compound `O=C(Nc1c[nH]c2cc(F)c(F)cc12)c1cc(Cc2ccc(C(F)(F)F)cc2)on1` [Compound 153, N-(5,6-difluoro-1H-indol-3-yl)-5-(4-(trifluoromethyl)benzyl)isoxazole-3-carboxamide] returned an EC50 of 0.2 to 1 µM.

In turn, `O=C(Nc1c[nH]c2ccc(Oc3ccccc3)cc12)c1cnn(Cc2ccc(C(F)(F)F)cc2)c1` [Compound 154, N-(5-phenoxy-1H-indol-3-yl)-1-(4-(trifluoromethyl)benzyl)-1H-pyrazole-4-carboxamide] had a 50% effective concentration (EC50) of 0.04 to 0.2 µM.

For `O=C(Nc1c[nH]c2cc(F)c(F)cc12)c1cc(CC2CCN(CC(F)(F)F)CC2)no1` [Compound 155, N-(5,6-difluoro-1H-indol-3-yl)-3-((1-(2,2,2-trifluoroethyl)piperidin-4-yl)methyl)isoxazole-5-carboxamide], the EC50 lay in the range of 0.04 to 0.2 µM.

`O=C(Nc1c[nH]c2cc(F)c(F)cc12)c1cn(-c2ccnc(COCC(F)(F)F)c2)nn1` [Compound 156, N-(5,6-difluoro-1H-indol-3-yl)-1-(2-((2,2,2-trifluoroethoxy)methyl)pyridin-4-yl)-1H-1,2,3-triazole-4-carboxamide] gave an EC50 of 1 to 5 µM.

For `O=C(Nc1c[nH]c2ccccc12)c1cn(-c2cnc(OCC(F)(F)F)c(F)c2)nn1` [Compound 157, 1-(5-fluoro-6-(2,2,2-trifluoroethoxy)pyridin-3-yl)-N-(1H-indol-3-yl)-1H-1,2,3-triazole-4-carboxamide], the EC50 was in the range of 5 to 100 µM.

`O=C(Nc1c[nH]c2ccc(Cl)cc12)c1cn(-c2cnc(NCC(F)(F)F)c(F)c2)nn1` [Compound 158, N-(5-chloro-1H-indol-3-yl)-1-(5-fluoro-6-((2,2,2-trifluoroethyl)amino)pyridin-3-yl)-1H-1,2,3-triazole-4-carboxamide] came in with an EC50 of 0.2 to 1 µM.

Regarding `O=C(Nc1c[nH]c2ccc(Cl)cc12)c1cn(-c2cnc(OCC(F)(F)F)c(F)c2)nn1` [Compound 159, N-(5-chloro-1H-indol-3-yl)-1-(5-fluoro-6-(2,2,2-trifluoroethoxy)pyridin-3-yl)-1H-1,2,3-triazole-4-carboxamide], the EC50 fell in the range of 0.2 to 1 µM.

`Cc1cc(Cn2cc(C(=O)Nc3c[nH]c4ccc(Cl)cc34)cn2)cnc1OCC(F)(F)F` [Compound 160, N-(5-chloro-1H-indol-3-yl)-1-((5-methyl-6-(2,2,2-trifluoroethoxy)pyridin-3-yl)methyl)-1H-pyrazole-4-carboxamide] displayed an EC50 of 0.04 to 0.2 µM.
